Experiments:
[1] = test system: Helicoverpa punctigera larvae; test: Bioassay with Haricot bean artificial diet, growth and development of larvae; assay type: in vivo
Protocol: Helicoverpa punctigera larvae were raised on artificial diets based on Haricot beans (Teakle et al. (13)). One litre of diet was composed of 234 g Haricot beans, 14 g agar, 700 ml water, 35 g Tortula yeast, 50 g wheatgerm, 3.5 g ascorbic acid, 1.1 g sorbic acid, 2.2 g p-hydroxybenzoic acid methyl ester, 0.2 g ampicillin, 0.2 g streptomycin, 16 mg prochloraz. The beans were soaked overnight in water, drained and homogenized to a fine paste. Wheatgerm, yeast and 300 ml of water were added. The agar was dissolved in 400 ml of boiling water and added to the mixture. The mixture was cooled to 50° C. before the addition of the remaining ingredients. The blended diet was poured into trays and after setting was used immediately or stored at −20° C. for no longer than two weeks. The test diet was supplemented with the Kalata B1 peptide (0.825 μmol/g of diet). Twenty newly emerged neonates were added to each diet and mortality was recorded every two days. Weight gain was recorded at the sixth day and then every second day thereafter. The larvae were reared in 1.5 ml eppendorfs microfuge tubes (one larva/tube) until day eight when they were transferred to individual plastic containers with lids (Solo (trademark) plastic portion cups, 28 ml) at the eight day. Larvae were fed small amounts of diet (40 mg) initially that was replaced as required to provide a continuous supply. The larvae were kept in a temperature controlled room at 25±1° C., 16:8 (L:D).
Most larvae on the control diet, however, had achieved fifth instar (FIGS. 13B, C).

[2] = test system: Helicoverpa armigera larvae; test: Bioassay with cotton leaf artificial diet, growth and development of larvae; assay type: in vivo
Protocol: Helicoverpa armigera larvae were raised on an artificial diet based on cotton leaves. One hundred ml of cotton leaf artificial diet was composed of 3 g cotton leaf powder (see below), 2 g Tortula yeast, 2.4 g wheat germ, 3.2 g ascorbic acid, 0.08 g sorbic acid, 0.16 g paraben (mould inhibitor), 0.08 ml linseed oil, 0.16 ml wheatgerm oil, 0.028 g ampicillin, 0.028 g streptomycin, 3.2 g agar and 80 ml water. Cotton leaf powder was prepared from freshly picked young, healthy cotton leaves which had been rapidly frozen in liquid nitrogen and freeze dried before they were ground to a fine powder using a mortar and pestle. Test diets contained the cyclic Kalata B1 peptide at 0.15% w/v of diet (high kalata) or 0.03% w/v of diet (low kalata), linear peptide (backbone chain opened between residues 7 and 8 [see FIG. 1A] at 0.15% w/v of diet. The control diet contained casein at 0.15% w/v of diet. The diet was mixed and dispensed as described for the Haricot bean diet and the bioassay was conducted in the same manner.
Newly hatched larvae were fed on an artificial diet based on cotton leaves, with and without added Kalata B1. […] Larvae on the Kalata B1 diet were about 18% of the size of those fed on the control diet.
Kalata peptides isolated from leaves are normally cyclic. The inventors sought to determine whether cyclization was essential for biological activity against insects. Newly hatched H. armigera larvae were added to an artificial diet based on cotton leaves which had been supplemented with cyclic Kalata B1 at either 0.15% w/v of diet or 0.03% w/v of diet. Growth of these larvae was compared to growth of larvae on diet with no added peptide or with added linear Kalata B1 at 0.15% w/v of the diet. Linear Kalata B1 is identical to cyclic Kalata B1 except the backbone chain is open between residues 7 and 8 [see FIG. 1A].

Kalata B1: 29 amino acid peptide with cyclic backbone and cystine knot from O. affinis (SEQ ID NO: 41) (cyclo(VCGETCVGGTCNTPGCTCSWPVCTRNGLP); disulfide (positions not given here); also: cystine knot, pairings not given here; listed as Oldenlandia affinis)
instar stage of development reached by survivors after 16 days ([1]; 0.825 μmol/g of diet, 16 days, most control larvae at fifth instar): none of the 12 survivors had progressed past the first instar stage of development | larvae that failed to survive past day 16 ([1]; 0.825 μmol/g of diet, day 16): 50% | mortality in the first six days ([1]; 0.825 μmol/g of diet, first six days, twenty neonates): No mortality | size of larvae after 16 days on artificial diet ([1]; 16 days, control diet ~30 mm (FIG. 13C)): ~5 mm | effect on the development of larvae ([1]; Haricot bean diet with peptide 0.825 μmol/g of diet): significant effect | size of larvae relative to those fed on the control diet ([2]; cotton leaf diet with added Kalata B1, 12 days): about 18% | instar stage of development reached after 12 days ([2]; cotton leaf diet, 12 days, control larvae at third to fourth instar): failed to progress past the first instar stage of development | effect on growth compared with the linear form ([2]; cyclic form at one fifth the concentration of the linear form (0.03% vs 0.15% w/v of diet)): more significant effect on growth
